ChEMBL document CHEMBL4364305, “Medicinal leech antimicrobial peptides lacking toxicity represent a promising alternative strategy to combat antibiotic-resistant pathogens” (Eur J Med Chem, 2019)
Values after ≈ are worked out from the molar mass of the structure shown. Active and inactive are the calls of the source. No cut-off for these calls is given here. Residues, ends and D or L forms follow the SMILES beside them.

Assays:
[1] = system: Chlamydia trachomatis; test: Antibacterial activity against Chlamydia trachomatis D/UW-3/Cx infected in mouse McCoy cells assessed as reduction in infected cells preincubated for 2 hrs and measured after 48 hrs by immunofluorescence method; format: functional
[2] = system: Escherichia coli; test: Antibacterial activity against Escherichia coli MG1655 assessed as reduction in bacterial cell growth incubated for 24 hrs by microtiter dilution method; format: functional; conditions: MG1655, 24 h
[3] = system: Bacillus subtilis; test: Antibacterial activity against Bacillus subtilis 168 HT assessed as reduction in bacterial cell growth incubated for 24 hrs by microtiter dilution method; format: functional
[4] = Cytotoxicity against mouse McCoy cells assessed as cell viability at 0.5 to 4 times of antibacterial MIC incubated for 48 hrs by calcein AM and ethidium homodimer-1 staining based epifluorescence microscopic method relative to control; conditions: read-out: Activity
[5] = system: Escherichia coli; test: Antibacterial activity against Escherichia coli MG1655 assessed as reduction in bacterial cell structural integrity at 0.5 antibacterial MIC incubated for 8 or 24 hrs by scanning electron microscopy; format: functional, organism-based
[6] = system: Bacillus subtilis; test: Antibacterial activity against Bacillus subtilis 168 HT assessed as reduction in bacterial cell structural integrity at 0.5 antibacterial MIC incubated for 8 or 24 hrs by scanning electron microscopy; format: functional, organism-based
[7] = system: Lipid bilayer; test: Disruption of large POPC:POPS unilamellar vesicle membrane assessed as release of carboxyfluorescein measured after 1 min by fluorescence based method
[8] = system: Lipid bilayer; test: Disruption of large POPS unilamellar vesicle membrane assessed as release of carboxyfluorescein measured after 1 min by fluorescence based method
[9] = system: Lipid bilayer; test: Disruption of large POPC:DOPG unilamellar vesicle membrane assessed as release of carboxyfluorescein measured after 1 min by fluorescence based method
[10] = system: Lipid bilayer; test: Disruption of large POPC unilamellar vesicle membrane assessed as release of carboxyfluorescein measured after 1 min by fluorescence based method
[11] = system: Bacillus subtilis; test: Induction of morphological changes in Bacillus subtilis 168 HT assessed as cellular debris formation at 0.5 antibacterial MIC incubated for 8 or 24 hrs by scanning electron microscopy; format: functional, organism-based
[12] = Hemolytic activity in human Erythrocyte at 100 uM measured after 1 hr relative to control; format: ADME, cell-based; conditions: erythrocytes, read-out: Activity
[13] = Cytotoxicity against mouse McCoy cells assessed as reduction in cell viability at 4 times of antibacterial MIC incubated for 48 hrs by calcein AM and ethidium homodimer-1 staining based epifluorescence microscopic method relative to control
[14] = Hemolytic activity in human Erythrocyte at 50 uM measured after 1 hr relative to control; format: ADME, cell-based; conditions: erythrocytes, read-out: Activity
[15] = Hemolytic activity in human Erythrocyte at 6.25 uM measured after 1 hr relative to control; format: ADME, cell-based; conditions: erythrocytes, read-out: Activity

Compound	MIC90 [1]	MIC [2]	MIC [3]	other results
CC[C@H](C)[C@H](NC(=O)[C@H](CCCNC(=N)N)NC(=O)[C@H](CCSC)NC(=O)[C@@H](NC(=O)[C@H](CCCNC(=N)N)NC(=O)[C@@H](N)Cc1ccccc1)[C@@H](C)CC)C(=O)N[C@@H](CC(C)C)C(=O)N[C@@H](CCCNC(=N)N)C(=O)N[C@H](C(=O)N[C@@H](CC(C)C)C(=O)N[C@@H](CCCCN)C(=O)N[C@@H](CC(C)C)C(=O)O)C(C)C (H-FRIMRILRVLKL-OH)	3.1 µM (≈ 4.83 µg/mL)	10.3 µM (≈ 16 µg/mL)	10.3 µM (≈ 16 µg/mL)	viability at 48 h [4]: 100%; Activity [5]: Active; Activity [6]: Active; Activity [7]: Dose-dependent effect; Activity [8]: Dose-dependent effect; Activity [9]: Dose-dependent effect; Activity [10]: inactive; Activity [11]: inactive
CC[C@H](C)[C@H](NC(=O)[C@H](CCCCN)NC(=O)[C@H](Cc1ccccc1)NC(=O)[C@H](CCCNC(=N)N)NC(=O)[C@H](CCCCN)NC(=O)[C@@H](NC(=O)[C@@H](NC(=O)[C@H](Cc1ccccc1)NC(=O)CN)[C@@H](C)CC)C(C)C)C(=O)N[C@@H](CC(C)C)C(=O)N[C@H](C(=O)O)C(C)C (H-GFIVKRFKILV-OH)	> 100 µM	> 97 µM	97 µM (≈ 128 µg/mL)	hemolysis at 1 h, 100 µM [12]: 30%; Activity [13]: 100%
CC[C@H](C)[C@H](N)C(=O)N[C@@H](CCCCN)C(=O)N[C@H](C(=O)N[C@H](C(=O)N[C@@H](C)C(=O)N1CCC[C@H]1C(=O)N[C@@H](CCCCN)C(=O)N[C@@H](CCCCN)C(=O)N[C@H](C(=O)N[C@@H](CCCCN)C(=O)N[C@@H](CC(C)C)C(=O)O)[C@@H](C)CC)C(C)C)[C@@H](C)CC (H-IKIVAPKKIKL-OH)	> 100 µM	> 102 µM	> 102 µM	–
CC(C)C[C@H](NC(=O)[C@H](Cc1ccccc1)NC(=O)[C@H](CS)NC(=O)[C@@H](NC(=O)[C@H](CC(C)C)NC(=O)[C@H](CCCNC(=N)N)NC(=O)[C@H](Cc1c[nH]c2ccccc12)NC(=O)[C@@H](N)CCCNC(=N)N)C(C)C)C(=O)N[C@@H](CS)C(=O)N[C@@H](CCCNC(=N)N)C(=O)N[C@@H](CCCNC(=N)N)C(=O)N[C@@H](CCCCN)C(=O)N[C@@H](CCCCN)C(=O)N[C@H](C(=O)O)C(C)C (H-RWRLVCFLCRRKKV-OH)	6.3 µM (≈ 11.7 µg/mL)	17.2 µM (≈ 32.1 µg/mL)	8.6 µM (≈ 16 µg/mL)	hemolysis at 1 h, 100 µM [12]: 30%; viability at 48 h [4]: 100%; Activity [5]: Active; Activity [6]: Active; Activity [7]: Dose-dependent effect; Activity [8]: Dose-dependent effect; Activity [9]: Dose-dependent effect; Activity [10]: inactive
CC[C@H](C)[C@H](NC(=O)CNC(=O)[C@H](C)NC(=O)[C@H](Cc1cnc[nH]1)NC(=O)[C@@H](NC(=O)[C@H](CCCCN)NC(=O)[C@H](Cc1ccc(O)cc1)NC(=O)[C@@H]1CCCN1C(=O)[C@@H](NC(=O)[C@H](CC(C)C)NC(=O)[C@H](CCCCN)NC(=O)[C@H](CCCCN)NC(=O)[C@@H](N)Cc1c[nH]c2ccccc12)C(C)C)[C@@H](C)CC)C(=O)O (H-WKKLVPYKIHAGI-OH)	> 100 µM	> 82 µM	> 82 µM	–
CC[C@H](C)[C@H](NC(=O)CN)C(=O)NCC(=O)N[C@@H](C)C(=O)N[C@H](C(=O)N[C@@H](CC(C)C)C(=O)N[C@@H](CCCCN)C(=O)N[C@H](C(=O)N[C@@H](CC(C)C)C(=O)N[C@H](C(=O)N[C@H](C(=O)NCC(=O)N[C@@H](CC(C)C)C(=O)N1CCC[C@H]1C(=O)N[C@@H](C)C(=O)N[C@@H](CC(C)C)C(=O)N[C@H](C(=O)N[C@@H](CO)C(=O)N[C@@H](Cc1c[nH]c2ccccc12)C(=O)N[C@H](C(=O)N[C@@H](CCCCN)C(=O)N[C@@H](CCCNC(=N)N)C(=O)N[C@@H](CCCCN)C(=O)N[C@@H](CCCNC(=N)N)C(=O)N[C@@H](CCC(N)=O)C(=O)N[C@@H](CCC(N)=O)C(N)=O)[C@@H](C)CC)[C@@H](C)CC)[C@@H](C)O)[C@@H](C)O)C(C)C)C(C)C [MELITTIN]	2 µM (≈ 5.69 µg/mL)	–	–	–

The next lines start with results.

MIC90 [1]	MIC [2]	MIC [3]	Compound	other results
12.5 µM (≈ 15.9 µg/mL)	100 µM (≈ 128 µg/mL)	12.6 µM (≈ 16.1 µg/mL)	CC[C@H](C)[C@H](NC(=O)[C@H](CC(C)C)NC(=O)[C@@H](N)CS)C(=O)N[C@@H](CCSC)C(=O)N[C@@H](CCCCN)C(=O)N[C@H](C(=O)N[C@@H](CCCNC(=N)N)C(=O)N[C@@H](CCCNC(=N)N)C(=O)N[C@@H](CCCCN)C(=O)N[C@@H](CCCCN)C(=O)O)C(C)C (H-CLIMKVRRKK-OH)	–
12.5 µM (≈ 21.3 µg/mL)	37.6 µM (≈ 64 µg/mL)	9.4 µM (≈ 16 µg/mL)	CC[C@H](C)[C@H](N)C(=O)N[C@@H](CO)C(=O)N[C@@H](CCCNC(=N)N)C(=O)N[C@@H](C)C(=O)N[C@@H](CS)C(=O)N[C@@H](CC(C)C)C(=O)N[C@H](C(=O)N[C@@H](CCSC)C(=O)N[C@@H](CCCCN)C(=O)N[C@H](C(=O)N[C@@H](CCCNC(=N)N)C(=O)N[C@@H](CCCNC(=N)N)C(=O)N[C@@H](CCCCN)C(=O)N[C@@H](CCCCN)C(=O)O)C(C)C)[C@@H](C)CC (H-ISRACLIMKVRRKK-OH)	–
12.5 µM (≈ 17.8 µg/mL)	90 µM (≈ 128 µg/mL)	45 µM (≈ 64.1 µg/mL)	CC[C@H](C)[C@H](NC(=O)[C@@H](NC(=O)[C@H](CCCCN)NC(=O)[C@H](CCCCN)NC(=O)[C@H](Cc1ccccc1)NC(=O)[C@@H](N)CCCCN)C(C)C)C(=O)N[C@@H](Cc1c[nH]c2ccccc12)C(=O)N[C@@H](CCCCN)C(=O)N[C@@H](CO)C(=O)N[C@@H](Cc1ccccc1)C(=O)N[C@@H](CC(C)C)C(=O)O (H-KFKKVIWKSFL-OH)	hemolysis at 1 h, 50 µM [14]: 50%; viability at 48 h [4]: 100%
12.5 µM (≈ 19.7 µg/mL)	> 81 µM	40.7 µM (≈ 64.1 µg/mL)	CC[C@H](C)[C@H](NC(=O)[C@@H](N)CC(C)C)C(=O)N[C@H](C(=O)N[C@@H](CC(C)C)C(=O)N[C@H](C(=O)N[C@@H](CS)C(=O)N[C@@H](CCCNC(=N)N)C(=O)N[C@@H](CCCCN)C(=O)N[C@@H](CCCCN)C(=O)N[C@@H](CCCCN)C(=O)N[C@@H](CCCCN)C(=O)N1CCC[C@H]1C(=O)N[C@@H](Cc1ccccc1)C(=O)O)[C@@H](C)O)C(C)C (H-LIVLTCRKKKKPF-OH)	Activity [13]: 100%
> 100 µM	> 92 µM	> 92 µM	CC[C@H](C)[C@H](NC(=O)CNC(=O)[C@@H](NC(=O)[C@H](CCCCN)NC(=O)[C@@H](NC(=O)CNC(=O)[C@H](CC(C)C)NC(=O)[C@H](Cc1c[nH]c2ccccc12)NC(=O)[C@H](CCCNC(=N)N)NC(=O)[C@@H](N)CC(C)C)[C@@H](C)O)C(C)C)C(=O)N[C@@H](CC(C)C)C(=O)N[C@@H](CCCCN)C(=O)O (H-LRWLGTKVGILK-OH)	–
> 100 µM	77.1 µM (≈ 128 µg/mL)	9.7 µM (≈ 16.1 µg/mL)	CC[C@H](C)[C@H](NC(=O)[C@@H](NC(=O)[C@H](CCCNC(=N)N)NC(=O)[C@@H](NC(=O)[C@H](CCCNC(=N)N)NC(=O)[C@H](CCCNC(=N)N)NC(=O)[C@@H](NC(=O)[C@H](CCCNC(=N)N)NC(=O)[C@@H](NC(=O)[C@H](CC(C)C)NC(=O)[C@@H](NC(=O)[C@@H]1CCCN1C(=O)[C@@H](N)CCCNC(=N)N)[C@@H](C)CC)[C@@H](C)CC)C(C)C)[C@@H](C)CC)C(C)C)C(=O)O (H-RPILIRVRRIRVI-OH)	Activity [13]: Toxic
50 µM (≈ 83.1 µg/mL)	77 µM (≈ 128 µg/mL)	38.5 µM (≈ 64 µg/mL)	CC[C@H](C)[C@H](NC(=O)[C@H](CCCCN)NC(=O)[C@@H](N)Cc1c[nH]c2ccccc12)C(=O)N[C@@H](Cc1ccccc1)C(=O)N[C@@H](CCCCN)C(=O)N[C@@H](CC(C)C)C(=O)N[C@@H](CCCCN)C(=O)N[C@@H](CC(C)C)C(=O)N[C@@H](CCCNC(=N)N)C(=O)N[C@@H](CCSC)C(=O)N[C@@H](CC(C)C)C(=O)N[C@@H](Cc1c[nH]c2ccccc12)C(=O)O (H-WKIFKLKLRMLW-OH)	hemolysis at 1 h, 6.25 µM [15]: 50%
